Experiment in all cases: relative viability (nuclei count vs DMSO), 5 days (fraction); higher = more cells survive
Compound in the assay “BI-D1870 + Palbociclib”: CC(C)CCN1c2nc(Nc3cc(F)c(O)c(F)c3)ncc2N(C)C(=O)C1C [BI-D1870] + CC(=O)c1c(C)c2cnc(Nc3ccc(N4CCNCC4)cn3)nc2n(C2CCCC2)c1=O [Palbociclib] (partner 0.5 µM)
The gist of the method:
(§1)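 Lung cancer cell lines were seeded in 1536-well plates and dosed by pin tool the next day, with either a single drug or a fixed anchor-drug dose combined with five library-drug doses (not always all listed) spaced in √10 steps. Five days later, one step fixed the cells and stained their nuclei (final 0.05% Triton X-100, 1% formaldehyde, 1 ug/ml Hoechst), and nuclei were counted on 4× images. Relative viability is the nuclei count in treated wells divided by the count in vehicle wells, and each value is the median of duplicate plates.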

Compound in the assay “Zebularine + Olaparib”: O=c1ncccn1[C@@H]1O[C@H](CO)[C@@H](O)[C@H]1O [Zebularine] + O=C(c1cc(Cc2n[nH]c(=O)c3ccccc23)ccc1F)N1CCN(C(=O)C2CC2)CC1 [Olaparib] (partner 8 µM)
Put shortly: as §1

Compound in the assay “Zebularine + Pictilisib”: O=c1ncccn1[C@@H]1O[C@H](CO)[C@@H](O)[C@H]1O [Zebularine] + CS(=O)(=O)N1CCN(Cc2cc3nc(-c4cccc5[nH]ncc45)nc(N4CCOCC4)c3s2)CC1 [Pictilisib] (partner 1 µM)
The gist of the method: as §1

Compound in the assay “Zebularine + Palbociclib”: O=c1ncccn1[C@@H]1O[C@H](CO)[C@@H](O)[C@H]1O [Zebularine] + CC(=O)c1c(C)c2cnc(Nc3ccc(N4CCNCC4)cn3)nc2n(C2CCCC2)c1=O [Palbociclib] (partner 0.5 µM)
Put shortly:
as §1

NCI-H661: the relative viability with BI-D1870 + Palbociclib (first compound 0.04 µM) was 0.459; in the assay with BI-D1870 + Palbociclib (first compound 0.1265 µM), 0.392; with BI-D1870 + Palbociclib (first compound 0.4 µM), 0.419; with BI-D1870 + Palbociclib (first compound 1.265 µM) it was 0.384; in the assay with BI-D1870 + Palbociclib (first compound 4 µM) it was 0.358; with Zebularine + Olaparib (first compound 1 µM), 0.856. Also, the relative viability came out at 0.708 in the assay with Zebularine + Olaparib (first compound 3.162 µM); 0.56 in the assay with Zebularine + Olaparib (first compound 10 µM); 0.943 with Zebularine + Olaparib (first compound 31.62 µM); 0.688 in the assay with Zebularine + Olaparib (first compound 100 µM); 0.413 with Zebularine + Pictilisib (first compound 1 µM); 0.427 with Zebularine + Pictilisib (first compound 3.162 µM). The relative viability with Zebularine + Pictilisib (first compound 10 µM) was 0.328; in the assay with Zebularine + Pictilisib (first compound 31.62 µM) it was 0.354; in the assay with Zebularine + Pictilisib (first compound 100 µM), 0.395; in the assay with Zebularine + Palbociclib (first compound 1 µM), 0.406; in the assay with Zebularine + Palbociclib (first compound 3.162 µM) it was 0.4; in the assay with Zebularine + Palbociclib (first compound 10 µM), 0.425. In addition, the values for the relative viability with Zebularine + Palbociclib (first compound 31.62 µM) and in the assay with Zebularine + Palbociclib (first compound 100 µM) were 0.435 and 0.438, respectively.
On to NCI-H727, for which the relative viability in the assay with BI-D1870 + Palbociclib (first compound 0.04 µM) amounted to 0.594; with BI-D1870 + Palbociclib (first compound 0.1265 µM), 0.579; in the assay with BI-D1870 + Palbociclib (first compound 0.4 µM), 0.648; with BI-D1870 + Palbociclib (first compound 1.265 µM), 0.64; in the assay with BI-D1870 + Palbociclib (first compound 4 µM), 0.66; in the assay with Zebularine + Olaparib (first compound 1 µM), 0.728. The relative viability in the assay with Zebularine + Olaparib (first compound 3.162 µM) amounted to 0.886; with Zebularine + Olaparib (first compound 10 µM), 0.732; in the assay with Zebularine + Olaparib (first compound 31.62 µM) it was 0.68; with Zebularine + Olaparib (first compound 100 µM), 0.775; with Zebularine + Pictilisib (first compound 1 µM) it was 0.385; in the assay with Zebularine + Pictilisib (first compound 3.162 µM) it was 0.22. Moreover, the relative viability with Zebularine + Pictilisib (first compound 10 µM) turned out to be 0.529; in the assay with Zebularine + Pictilisib (first compound 31.62 µM), 0.373; with Zebularine + Pictilisib (first compound 100 µM), 0.353; with Zebularine + Palbociclib (first compound 1 µM) it was 0.652; with Zebularine + Palbociclib (first compound 3.162 µM), 0.729; with Zebularine + Palbociclib (first compound 10 µM) it was 0.69. In addition, the relative viability came to 0.634 in the assay with Zebularine + Palbociclib (first compound 31.62 µM) and 0.618 with Zebularine + Palbociclib (first compound 100 µM).
With NCI-H838, the relative viability is 0.243 with BI-D1870 + Palbociclib (first compound 0.04 µM); 0.236 with BI-D1870 + Palbociclib (first compound 0.1265 µM); 0.232 with BI-D1870 + Palbociclib (first compound 0.4 µM); 0.262 with BI-D1870 + Palbociclib (first compound 1.265 µM); 0.209 in the assay with BI-D1870 + Palbociclib (first compound 4 µM); 0.856 with Zebularine + Olaparib (first compound 1 µM). Besides, the relative viability with Zebularine + Olaparib (first compound 3.162 µM) was determined as 0.798; with Zebularine + Olaparib (first compound 10 µM) it was 0.546; in the assay with Zebularine + Olaparib (first compound 31.62 µM), 0.38; with Zebularine + Olaparib (first compound 100 µM), 0.266; with Zebularine + Pictilisib (first compound 1 µM) it was 0.463; in the assay with Zebularine + Pictilisib (first compound 3.162 µM), 0.457. The relative viability amounted to 0.422 with Zebularine + Pictilisib (first compound 10 µM); 0.51 with Zebularine + Pictilisib (first compound 31.62 µM); 0.303 in the assay with Zebularine + Pictilisib (first compound 100 µM); 0.222 with Zebularine + Palbociclib (first compound 1 µM); 0.257 with Zebularine + Palbociclib (first compound 3.162 µM); 0.223 in the assay with Zebularine + Palbociclib (first compound 10 µM). Besides, the relative viability was found to be 0.238 with Zebularine + Palbociclib (first compound 31.62 µM) and 0.219 with Zebularine + Palbociclib (first compound 100 µM).
For NCI-H1355, the relative viability with BI-D1870 + Palbociclib (first compound 0.04 µM) was 0.384; in the assay with BI-D1870 + Palbociclib (first compound 0.1265 µM), 0.368; in the assay with BI-D1870 + Palbociclib (first compound 0.4 µM), 0.403; with BI-D1870 + Palbociclib (first compound 1.265 µM), 0.446; with BI-D1870 + Palbociclib (first compound 4 µM), 0.392; with Zebularine + Olaparib (first compound 1 µM) it was 0.625. Further, the relative viability in the assay with Zebularine + Olaparib (first compound 3.162 µM) came out at 0.426; in the assay with Zebularine + Olaparib (first compound 10 µM), 0.375; with Zebularine + Olaparib (first compound 31.62 µM), 0.28; with Zebularine + Olaparib (first compound 100 µM) it was 0.272; in the assay with Zebularine + Pictilisib (first compound 1 µM) it was 0.45; with Zebularine + Pictilisib (first compound 3.162 µM), 0.272. Besides, the relative viability is 0.371 with Zebularine + Pictilisib (first compound 10 µM); 0.426 in the assay with Zebularine + Pictilisib (first compound 31.62 µM); 0.254 with Zebularine + Pictilisib (first compound 100 µM); 0.402 with Zebularine + Palbociclib (first compound 1 µM); 0.371 with Zebularine + Palbociclib (first compound 3.162 µM); 0.384 with Zebularine + Palbociclib (first compound 10 µM). Also, the relative viability with Zebularine + Palbociclib (first compound 31.62 µM) worked out at 0.303; with Zebularine + Palbociclib (first compound 100 µM), 0.252.

The values above are taken from the supplement of paper PMC10307832.
